Assay results as given in article PMC5927802, “Pharmacokinetics, safety, and tolerability of the 2‐ and 3‐direct‐acting antiviral combination of AL‐335, odalasvir, and simeprevir in healthy subjects” (Pharmacology Research & Perspectives, 2018).
“Also recorded” adds a separate entry of the source. Where two headings read alike, the source gives them in different places.

Experiments:
CYP1A2 = test system: CYP1A2; set-up: method as in PMID 26353895; conditions: cited from earlier work
OATP1B1/1B3 = conditions: cited from earlier work
CYP3A = test system: CYP3A; set-up: method as in PMID 26353895; conditions: cited from earlier work
[1] = Plasma pharmacokinetics, Phase I open‐label two‐group fixed‐sequence drug‐drug interaction study; conditions: for C min / concentration at 23.9 h / concentration at 24 h / Cmax: mean (SD); for T last / Tmax: median (range); for AUC0‐24 h LSM ratio / C min LSM ratio / Cmax LSM ratio: point estimate (90% CI); for concentration at 23.9 h / concentration at 24 h / Cmax / Tmax: human, plasma, oral; for concentration at 23.9 h / concentration at 24 h: C last; for Tmax: T max
From the text: This was an open‐label, two‐group, fixed‐sequence study conducted at a single study center in Rennes, France (Biotrial). A two‐group, fixed‐sequence study design was chosen as this was deemed to be the most efficient way to evaluate the effect of simeprevir with/without odalasvir on AL‐335; and vice versa (Group 1) and the effect of odalasvir with/without simeprevir on AL‐335; and vice versa (Group 2). Thus, this study design had the potential to gather both 2‐way and 3‐way DDIs. For both groups, the study consisted of a screening period, a study period, and two follow‐up visits. The study was authorized by the French National Agency for the Safety of Medicine and Health Products (ANSM) and was approved by an Independent Ethics Committee (Comité de Protection des Personnes [CPP] Ouest VI, Brest, France; Reference CPP Ouest 6–CPP 888/MS1), and was conducted in accordance with the principles of the Declaration of Helsinki and International Conference on Harmonization. All subjects provided written informed consent to participate. Drug and molecular target nomenclature in this manuscript conforms to the British Journal of Pharmacology's Concise Guide to Pharmacology 2017/18.19
Subjects in Group 1 received simeprevir 150 mg QD on days 4‐23, odalasvir 150 mg (loading dose) on day 14, odalasvir 50 mg QD on days 15‐23, and AL‐335 800 mg QD on days 1‐3, 11‐13, and 21‐23. Subjects in Group 2 received odalasvir 150 mg (loading dose) on day 4, odalasvir 50 mg QD on days 5‐23, simeprevir 150 mg QD on days 14‐23, and AL‐335 800 mg QD on days 1‐3, 11‐13, and 21‐23. […] A minimum of 10 days was considered sufficient for both odalasvir and simeprevir to reach steady‐state.
Subjects were assigned sequentially to Group 1 then to Group 2 after confirming eligibility.
As this was an […] pharmacokinetic study, blood samples for pharmacokinetic analysis were collected predose and at 0.25, 0.5, 1, 2, 3, 4, 6, 8, 10, 12, and 24 hours postdose on days 3, 13, and 23 for determination of AL‐335, ALS‐022399, and ALS‐022227 plasma concentrations (Groups 1 and 2). For simeprevir, blood samples for determination of simeprevir plasma concentrations were taken at the same time points but on days 10, 13, 20, and 23 (Group 1) or days 20 and 23 (Group 2). Blood samples for the determination of odalasvir plasma concentrations were collected predose and at 1, 3, 4, 5, 6, 7, 8, 9, 10, 12, 16, and 24 hours postdose on days 20 and 23 (Group 1) or days 10, 13, 20, and 23 (Group 2), with two further samples also collected on the day 7 and day 28 follow‐up assessments (both groups).
Plasma concentrations of AL‐335, ALS‐022399, ALS‐022227, odalasvir, and simeprevir were determined using validated liquid chromatography‐tandem mass spectrometry methods. Dichlorvos solution was added to blood samples from AL‐335‐treated subjects to stabilize AL‐335 and its metabolites (25 μL of 5 mmol/L dichlorvos into 1 mL blood). The lower limit of quantification was 1 ng/mL, 2 ng/mL, and 5 ng/mL for AL‐335, ALS‐022399, and ALS‐022227, respectively, 1 ng/mL for odalasvir, and 2 ng/mL for simeprevir.
Pharmacokinetic analyses were performed on all subjects with available profiles who received at least one dose of study drug without any protocol deviation affecting pharmacokinetic evaluation. […] Secondary parameters were last observed plasma concentration, apparent elimination half‐life, time of the maximum observed plasma concentration (T max), and time to last measurable plasma concentration (T last).

[2] = test system: breast cancer resistance protein (BCRP); conditions: not told; cited from earlier work
[3] = Group 1 Day 13, SMV + AL‐335 versus SMV alone
[4] = Group 1 Day 20, SMV + ODV versus SMV alone
[5] = Group 1 Day 23, SMV + AL‐335 + ODV versus SMV alone
[6] = Group 1 Day 23, SMV + AL‐335 + ODV
[7] = Group 2 Day 23, SMV + AL‐335 + ODV

Q: With COc1ccc2c(O[C@@H]3C[C@H]4C(=O)N[C@]5(C(=O)NS(=O)(=O)C6CC6)C[C@H]5/C=C\CCCCN(C)C(=O)[C@@H]4C3)cc(-c3nc(C(C)C)cs3)nc2c1C [simeprevir] as the compound, how does the CYP1A2 inhibition (CYP1A2) read?
A: mild but not clinically relevant inhibitor

Q: What about the “OATP1B1/3 substrate / inhibitor status” value (OATP1B1/1B3) of the same compound?
A: clinically confirmed OATP1B1 inhibitor

Q: What about the “OATP1B1/3 substrate / inhibitor status” value (OATP1B1/1B3; listed as Simeprevir) of the same compound?
A: substrate and inhibitor

Q: What about the CYP3A inhibition (CYP3A) of the same compound?
A: mild inhibitor of intestinal (not hepatic) CYP3A

Q: What about the “effect of AL‐335 on pharmacokinetics” value ([1]; AL‐335 800 mg QD coadministered) of the same compound?
A: no effect; also recorded: did not alter; also recorded: no impact

Q: And the C min ([1]; Group 1 Day 10, SMV alone)?
A: 833 (856) ng/mL

Q: And the T last ([1]; Group 1 Day 10, SMV alone)?
A: 23.9 (23.9‐24.0) h

Q: And the C min ([1]; Group 1 Day 13, SMV + AL‐335)?
A: 857 (1129) ng/mL

Q: What about the T last ([1]; Group 1 Day 13, SMV + AL‐335) of the same compound?
A: 23.9 (23.9‐24.0) h

Q: What about the “AUC0‐24 h LSM ratio” value [1, 3] of the same compound?
A: 0.93 (0.83‐1.05)

Q: What about the “C min LSM ratio” value [1, 3] of the same compound?
A: 0.88 (0.76‐1.02)

Q: And the “Cmax LSM ratio” value [1, 3]?
A: 0.89 (0.79‐1.00)

Q: And the “AUC0‐24 h LSM ratio” value [1, 4]?
A: 1.76 (1.53‐2.01)

Q: What about the “C min LSM ratio” value [1, 4] of the same compound?
A: 1.41 (1.01‐1.99)

Q: What about the “Cmax LSM ratio” value [1, 4] of the same compound?
A: 1.66 (1.36‐2.01)

Q: And the C min ([1]; Group 1 Day 20, SMV + ODV)?
A: 1446 (2064) ng/mL

Q: What about the T last ([1]; Group 1 Day 20, SMV + ODV) of the same compound?
A: 23.9 (23.9‐24.0) h

Q: And the “AUC0‐24 h LSM ratio” value [1, 5]?
A: 1.60 (1.38‐1.85)

Q: What about the “C min LSM ratio” value [1, 5] of the same compound?
A: 1.82 (1.52‐2.19)

Q: And the “Cmax LSM ratio” value [1, 5]?
A: 1.43 (1.23‐1.66)

Q: And the C min [1, 6]?
A: 1910 (2441) ng/mL

Q: And the T last [1, 6]?
A: 24.0 (24.0‐24.0) h

Q: And the C min ([1]; Group 2 Day 20, SMV + ODV)?
A: 1274 (1035) ng/mL

Q: What about the T last ([1]; Group 2 Day 20, SMV + ODV) of the same compound?
A: 23.9 (23.8‐24.1) h

Q: And the C min [1, 7]?
A: 1847 (2313) ng/mL

Q: What about the T last [1, 7] of the same compound?
A: 24.0 (24.0‐24.1) h

Q: What about the concentration at 23.9 h ([1]; 150 mg, Group 1 Day 10, SMV alone) of the same compound?
A: 981 ng/mL

Q: And the concentration at 23.9 h ([1]; Group 1 Day 13, SMV + AL‐335)?
A: 1020 ng/mL

Q: What about the concentration at 23.9 h ([1]; Group 1 Day 20, SMV + ODV) of the same compound?
A: 2340 ng/mL

Q: What about the concentration at 24 h [1, 6] of the same compound?
A: 2390 ng/mL

Q: What about the concentration at 23.9 h ([1]; Group 2 Day 20, SMV + ODV) of the same compound?
A: 2140 ng/mL

Q: What about the concentration at 24 h [1, 7] of the same compound?
A: 2590 ng/mL

Q: And the Cmax ([1]; Group 1 Day 10, SMV alone)?
A: 2960 ng/mL

Q: What about the Cmax ([1]; Group 1 Day 13, SMV + AL‐335) of the same compound?
A: 2760 ng/mL

Q: What about the Cmax ([1]; Group 1 Day 20, SMV + ODV) of the same compound?
A: 5220 ng/mL

Q: And the Cmax [1, 6]?
A: 4740 ng/mL

Q: And the Cmax ([1]; Group 2 Day 20, SMV + ODV)?
A: 4530 ng/mL

Q: What about the Cmax [1, 7] of the same compound?
A: 4950 ng/mL

Q: What about the Tmax ([1]; Group 1 Day 10, SMV alone) of the same compound?
A: 6 h

Q: And the Tmax ([1]; Group 1 Day 13, SMV + AL‐335)?
A: 6 h

Q: And the Tmax ([1]; Group 1 Day 20, SMV + ODV)?
A: 6 h

Q: What about the Tmax [1, 6] of the same compound?
A: 6 h

Q: What about the Tmax ([1]; Group 2 Day 20, SMV + ODV) of the same compound?
A: 6 h

Q: And the Tmax [1, 7]?
A: 8 h

Q: And the “difference in T max” value ([1]; simeprevir coadministered with odalasvir)?
A: No clinically relevant difference

Q: What about the “BCRP substrate / inhibitor status” value [2] of the same compound?
A: substrate and inhibitor
